According to patent US20190161451A1, “HERBICIDAL PYRIMIDINE COMPOUNDS” (BASF SE, priority 2016, published 2019):

Experiments:
ALOMY = assay: greenhouse experiment, post-emergence treatment; assay type: in vivo, Alopecurus myosuroides; details: post-emergence method, application rate 1000 g/ha, scale from 0 to 100
Text: (§1) The culture containers used were plastic flowerpots containing loamy sand with approximately 3.0% of humus as the substrate. The seeds of the test plants were sown separately for each species.
(§2) For the post-emergence treatment, the test plants were first grown to a height of 3 to 15 cm, depending on the plant habit, and only then treated with the active ingredients which had been suspended or emulsified in water. For this purpose, the test plants were either sown directly and grown in the same containers, or they were first grown separately as seedlings and transplanted into the test containers a few days prior to treatment.
(§3) Depending on the species, the plants were kept at 10-25° C. or 20-35° C., respectively.
(§4) The test period extended over 2 to 4 weeks. During this time, the plants were tended, and their response to the individual treatments was evaluated.
(§5) Evaluation was carried out using a scale from 0 to 100. 100 means no emergence of the plants, or complete destruction of at least the aerial moieties, and 0 means no damage, or normal course of growth. A good herbicidal activity is given at values of at least 70 and a very good herbicidal activity is given at values of at least 85.
(§6) The plants used in the greenhouse experiments were of the following species: […]

AVEFA = assay: greenhouse experiment, post-emergence treatment; assay type: in vivo, Avena fatua; details: post-emergence method, application rate 1000 g/ha, scale from 0 to 100
Text: as §1, §2, §3, §4, §5, §6

ECHCG = assay: greenhouse experiment, pre-emergence treatment; assay type: in vivo, Echinocloa crus-galli; details: pre-emergence method, application rate 1000 g/ha, scale from 0 to 100
Text: as §1
(§7) For the pre-emergence treatment, the active ingredients, which had been suspended or emulsified in water, were applied directly after sowing by means of finely distributing nozzles.
(§8) The containers were irrigated gently to promote germination and growth and subsequently covered with transparent plastic hoods until the plants had rooted. This cover caused uniform germination of the test plants, unless this had been impaired by the active ingredients.
as §3, §4, §5, §6

APESV = assay: greenhouse experiment, pre-emergence treatment; assay type: in vivo, Apera spica-venti; details: pre-emergence method, application rate 1000 g/ha, scale from 0 to 100
Text: as §1, §7, §8, §3, §4, §5, §6

SETFA = assay: greenhouse experiment, pre-emergence treatment; assay type: in vivo, Setaria faberi Herrm; details: pre-emergence method, application rate 1000 g/ha, scale from 0 to 100
Text: as §1, §7, §8, §3, §4, §5, §6

SMILES	herbicidal activity against ALOMY (ALOMY)	herbicidal activity against AVEFA (AVEFA)	herbicidal activity against ECHCG (ECHCG)	herbicidal activity against APESV (APESV)	herbicidal activity against SETFA (SETFA)
O=C(O)c1nc(C2CC2)ncc1-c1c(Cl)ccc2c1OCO2 [example 14]	good (A good herbicidal activity is given at values of at least 70)	good (A good herbicidal activity is given at values of at least 70)	very good (a very good herbicidal activity is given at values of at least 85)	very good (a very good herbicidal activity is given at values of at least 85)	–
COC(=O)c1nc(C2CC2)ncc1-c1ccc2ccccc2c1Cl [example 26]	–	–	–	–	very good (a very good herbicidal activity is given at values of at least 85)
